Active and inactive are the calls of the source. Rule as the data show it: actives have a measured IC50 and inactives only a lower limit.

For the assay, the target named is Envelope glycoprotein gp160 (Human immunodeficiency virus 1, UniProt Q6QLK5). The experiment in a line: cell-free HIV fusion peptide-binding blockers – biochemical, uHTS, fluorescence dequenching, […] (AID 1986).
Envelope glycoprotein gp160, sequence (Q6QLK5 whole entry, the tested form may be a part): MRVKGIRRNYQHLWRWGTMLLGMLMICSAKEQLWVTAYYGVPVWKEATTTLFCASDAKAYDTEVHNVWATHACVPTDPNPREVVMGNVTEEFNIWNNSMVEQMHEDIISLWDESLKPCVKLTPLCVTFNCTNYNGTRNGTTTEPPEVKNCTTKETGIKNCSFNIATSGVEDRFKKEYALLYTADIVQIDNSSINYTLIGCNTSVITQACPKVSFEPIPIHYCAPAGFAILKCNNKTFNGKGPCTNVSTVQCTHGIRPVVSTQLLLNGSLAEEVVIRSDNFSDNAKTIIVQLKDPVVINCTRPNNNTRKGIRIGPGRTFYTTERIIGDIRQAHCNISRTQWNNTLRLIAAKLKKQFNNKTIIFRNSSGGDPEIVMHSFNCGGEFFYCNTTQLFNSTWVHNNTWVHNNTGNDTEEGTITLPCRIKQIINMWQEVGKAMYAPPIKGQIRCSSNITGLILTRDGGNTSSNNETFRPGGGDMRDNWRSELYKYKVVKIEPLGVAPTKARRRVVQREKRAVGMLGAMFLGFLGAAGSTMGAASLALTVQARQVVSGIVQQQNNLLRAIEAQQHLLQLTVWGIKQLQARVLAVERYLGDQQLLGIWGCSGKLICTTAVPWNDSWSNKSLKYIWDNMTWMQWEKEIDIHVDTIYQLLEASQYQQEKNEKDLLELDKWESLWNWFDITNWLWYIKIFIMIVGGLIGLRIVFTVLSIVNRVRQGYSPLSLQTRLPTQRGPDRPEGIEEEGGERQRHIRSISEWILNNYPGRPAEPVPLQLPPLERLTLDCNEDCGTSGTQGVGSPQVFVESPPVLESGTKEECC
Regarding `CC(=O)Nc1sc(/C(C#N)=C/c2ccc(Cl)c(Cl)c2)nc1-c1ccc(C)cc1`, the 50% inhibitory concentration (IC50) (in general, the point on the concentration scale where inhibition reaches its midpoint) is 2.04 µM (active). The result for `CCOC(=O)C1=C(C)N=c2s/c(=C\c3ccc(OCC(=O)O)cc3)c(=O)n2C1c1ccc(Cl)cc1` (centres undefined) reads 13.8 µM (active). The result for `COc1cc([N+](=O)[O-])cc(/C=C2/SC(=S)N(Cc3ccccc3)C2=O)c1O` reads 32.6 µM (active); that for `O=C(O)c1ccc(N2C(=O)/C(=C/c3ccc(-c4ccc([N+](=O)[O-])cc4)o3)C=C2c2ccccc2)cc1`, 9.9 µM (active).

Source of the values: ChEMBL document CHEMBL1201862, “PubChem BioAssay data set” (2004).
